Results: patent US20020025332A1, “Cosmetic compositions containing substituted sulfonamide derivatives” (Unilever Home & Personal Care USA, Division of Conopco, Inc., priority 2000, published 2002)
“And” between values parts separate entries of the source, which are not always exact repeats. Equal entries are not always repeated. Where two headings read alike, the source gives them in different places.

Test system: human sebocytes
Experiment: Sebum suppression: 14C-acetate label remaining in cultured human sebocytes after treatment
Type: cell-based
Settings: for activity at 1 µM / activity at 10 µM / activity at 100 µM / activity at 0.1 µM: read-out: % of Control; for sebum suppressive activity in the presence of retinol: in the presence of retinol / a retinoid versus compound alone
Procedure: Compounds A through K were tested for their potential to suppress sebum expression, alone or in the presence of a retinoid.
Secondary cultures of human sebocytes obtained from an adult […] were grown in 48-well tissue culture plates (Costar Corp.; Cambridge, Mass.) or 96-well tissue culture plates (Packard Co.; Meriden, Conn.) until confluent. Sebocyte growth medium consisted of Clonetics Keratinocyte Basal Medium (KBM) supplemented with 14 μg/ml bovine pituitary extract, 0.4 μg/ml hydrocortisone, 5 μg/ml insulin, […], 1.2×10^-10 M cholera toxin, 100 units/ml penicillin, and 100 μg/ml streptomycin. All cultures were incubated at 37° C. in the presence of 7.5% CO2. Medium was changed three times per week.
On the day of experimentation, the growth medium was removed and the sebocytes washed three times with sterile Dulbecco's Modified Eagle Medium (DMEM; phenol red free). Fresh DMEM was added to each sample (duplicates, triplicates, or quadruplicates depending on the experiment) with 5 microliter of test agent solubilized in ethanol either alone or in the presence of one or 10 micromolar of retinol. Controls consisted of addition of ethanol alone, retinol alone, or phenol red, which has estrogen-like activity and is included as a positive control.
Each plate was returned to the incubator for 20 hours followed by the addition of 14C-acetate buffer (5 mM final concentration, 56 mCi/mmol specific activity). Sebocytes were returned to the incubator for four hours afterwhich each culture was rinsed three times with phosphate buffered saline to remove unbound label. Radioactive label remaining in the sebocytes was harvested and counted using a Beckman scintillation counter.

[1] = 1 μM test agent + 10 μM Retinol
[2] = 10 μM test agent + 1 μM Retinol
[3] = Homo sapiens, 1 μM test agent + 1 μM Retinol
[4] = Homo sapiens, 1 μM test agent + 10 μM Retinol
[5] = Homo sapiens, 1 μM test agent alone
[6] = Homo sapiens, 10 μM test agent + 1 μM Retinol
[7] = Homo sapiens, 10 μM test agent alone
[8] = 10 μM test agent + 10 μM Retinol
[9] = Homo sapiens, 10 μM test agent + 10 μM Retinol
[10] = Homo sapiens, 100 μM test agent + 1 μM Retinol
[11] = Homo sapiens, 100 μM test agent + 10 μM Retinol
[12] = Homo sapiens, 100 μM test agent alone

Question: COc1ccc(S(=O)(=O)Nc2cccc(C(C)O)c2)cc1 (stereo not drawn) [Compound A] was tested. Which “% of Control” value (1 μM test agent + 1 μM Retinol) did it give?
Answer: 102.5%

Question: And the “% of Control” value [1]?
Answer: 94.6%

Question: What about the “% of Control” value (1 μM test agent alone, 1 µM) of the same compound?
Answer: 100.7%

Question: What about the “% of Control” value [2] of the same compound?
Answer: 65.8%

Question: And the “% of Control” value (10 μM test agent alone, 10 µM)?
Answer: 91.9%

Question: And the activity at 1 µM [3]?
Answer: 112%

Question: And the activity at 1 µM [4]?
Answer: 101%

Question: What about the activity at 1 µM [5] of the same compound?
Answer: 111%

Question: And the activity at 10 µM [6]?
Answer: 46%

Question: What about the activity at 10 µM [7] of the same compound?
Answer: 109%

Question: And the “sebum suppressive activity in the presence of retinol” value?
Answer: improved sebum suppressive activity

Question: How did the “% of Control” value (1 μM test agent + 1 μM Retinol) turn out when CC(O)c1cccc(NS(=O)(=O)c2c(F)c(F)c(F)c(F)c2F)c1 (stereo not drawn) [Compound B] was run?
Answer: 94.7%

Question: What about the “% of Control” value [1] of the same compound?
Answer: 96.5%

Question: What about the “% of Control” value (1 μM test agent alone, 1 µM) of the same compound?
Answer: 98.4%

Question: What about the “% of Control” value [2] of the same compound?
Answer: 90.1%

Question: And the “% of Control” value [8]?
Answer: 84.8%

Question: What about the “% of Control” value (10 μM test agent alone, 10 µM) of the same compound?
Answer: 89.3%

Question: What about the activity at 1 µM [3] of the same compound?
Answer: 90.9%

Question: And the activity at 1 µM [4]?
Answer: 96.4%

Question: What about the activity at 1 µM [5] of the same compound?
Answer: 79.8%

Question: And the activity at 10 µM [6]?
Answer: 80.6%

Question: What about the activity at 10 µM [9] of the same compound?
Answer: 84.4%

Question: And the activity at 10 µM [7]?
Answer: 95.4%

Question: What about the activity at 100 µM [10] of the same compound?
Answer: 75.3%

Question: And the activity at 100 µM [11]?
Answer: 72.2%

Question: And the activity at 100 µM [12]?
Answer: 74.2%

Question: What does the source list for CC(O)c1cccc(NS(=O)(=O)c2ccc(Cl)c([N+](=O)[O-])c2)c1 (stereo not drawn) [Compound C]?
Answer: activity at 1 µM [3]: 87.7%; activity at 1 µM [4]: 77.5%; activity at 1 µM [5]: 101%; activity at 10 µM [6]: 95.5%; activity at 10 µM [9]: 84.8%; activity at 10 µM [7]: 79%; activity at 100 µM [10]: 20.8%; activity at 100 µM [11]: 5.3%; activity at 100 µM [12]: 37.8%; sebum suppressive activity in the presence of retinol: improved sebum suppressive activity

Question: What does the source list for CC(O)c1cccc(NS(=O)(=O)c2cccc3c(N(C)C)cccc23)c1 (stereo not drawn) [Compound D]?
Answer: % of Control [1]: 102.8%; % of Control (1 μM test agent alone, 1 µM): 126.4% and 102.4%; % of Control (10 μM test agent alone, 10 µM): 71.6% and 43.3%; activity at 1 µM [3]: 102%; activity at 1 µM [4]: 89.1%; activity at 10 µM [6]: 60.8%; activity at 100 µM [11]: 1.2%; activity at 100 µM [12]: 6.7%; sebum suppressive activity in the presence of retinol: improved sebum suppressive activity

Question: Which “% of Control” value (1 μM test agent + 1 μM Retinol) does the source give for CC(O)c1cccc(NS(=O)(=O)c2cccs2)c1 (stereo not drawn) [Compound E] here?
Answer: 98.3%

Question: And the “% of Control” value [1]?
Answer: 110.2%

Question: What about the “% of Control” value (1 μM test agent alone, 1 µM) of the same compound?
Answer: 103.3%

Question: What about the “% of Control” value [2] of the same compound?
Answer: 5.7% and 1.6%

Question: And the activity at 1 µM [3]?
Answer: 103%

Question: What about the activity at 1 µM [4] of the same compound?
Answer: 102%

Question: What about the activity at 1 µM [5] of the same compound?
Answer: 94.6%

Question: Which results are given for O=[N+]([O-])c1cc(S(=O)(=O)Nc2ccc3c(c2)OCCO3)ccc1Cl [Compound F]?
Answer: % of Control (1 μM test agent + 1 μM Retinol): 100.4% and 75.9%; % of Control [1]: 74.2%; % of Control (1 μM test agent alone, 1 µM): 80.7%; % of Control [2]: 1.8% and 0.6%; activity at 1 µM [4]: 89.1%; activity at 1 µM [5]: 79.6%; activity at 10 µM [9]: 1.2%

Question: Which results are given for O=S(=O)(Nc1ccc2c(c1)OCCO2)c1ccc2ccccc2c1 [Compound G]?
Answer: % of Control (1 μM test agent alone, 1 µM): 82.0%; % of Control [2]: 39.9%; % of Control [8]: 13.1%; % of Control (10 μM test agent alone, 10 µM): 45.7% and 25.0%; activity at 0.1 µM (Homo sapiens, 0.1 μM test agent + 1 μM Retinol): 103%; activity at 0.1 µM (Homo sapiens, 0.1 μM test agent + 10 μM Retinol): 94.1%; activity at 0.1 µM (Homo sapiens, 0.1 μM test agent alone, 14C-acetate label in sebocytes): 101%; activity at 1 µM [5]: 67.5%; activity at 10 µM [6]: 24.8%; activity at 10 µM [9]: 17.9%; sebum suppressive activity in the presence of retinol: improved sebum suppressive activity

Question: With CN(C)c1cccc(NS(=O)(=O)c2ccc(Cl)c([N+](=O)[O-])c2)c1 [Compound H] as the compound, how does the “% of Control” value (1 μM test agent + 1 μM Retinol) read?
Answer: 88.0% and 90.2% and 65.1%

Question: What about the “% of Control” value [1] of the same compound?
Answer: 86.8% and 78.8% and 53.6% and 91.1%

Question: And the “% of Control” value (1 μM test agent alone, 1 µM)?
Answer: 96.1% and 71.7% and 66.6% and 83.4%

Question: What about the “% of Control” value [8] of the same compound?
Answer: 80.3% and 76.1% and 79.2% and 118.0%

Question: And the activity at 100 µM [11]?
Answer: 3.9%

Question: And the activity at 100 µM [12]?
Answer: 44.2%

Question: With CN(C)c1cccc(NS(=O)(=O)c2ccc3ccccc3c2)c1 [Compound J] as the compound, how does the “% of Control” value [1] read?
Answer: 67.9% and 93.8%

Question: What about the “% of Control” value (1 μM test agent alone, 1 µM) of the same compound?
Answer: 55.6%

Question: What about the “% of Control” value [8] of the same compound?
Answer: 69.8%

Question: What about the “% of Control” value (10 μM test agent alone, 10 µM) of the same compound?
Answer: 81.7%

Question: What about the activity at 1 µM [3] of the same compound?
Answer: 74.1%

Question: And the activity at 1 µM [5]?
Answer: 74.6%

Question: And the activity at 10 µM [6]?
Answer: 64.7%

Question: And the activity at 10 µM [9]?
Answer: 63.9%

Question: What about the activity at 10 µM [7] of the same compound?
Answer: 67.5%

Question: What about the activity at 100 µM [11] of the same compound?
Answer: 2%

Question: And the activity at 100 µM [12]?
Answer: 1.2%

Question: For O=S1(=O)OC(c2ccc(O)cc2)(c2ccc(O)cc2)c2ccccc21 [Phenol Red, phenol red, reference compound], which “% of Control” value (28 μM (positive control) alone, 28 µM) is on record?
Answer: 74.7% and 68.4% and 84.4%

Question: And the “% of Control” value (280 μM (positive control) alone)?
Answer: 54.2% and 52.5%

Question: What about the activity at 28 µM (Homo sapiens, 28 μM (positive control) alone) of the same compound?
Answer: 67.6%

Question: What does the source list for CC1=C(/C=C/C(C)=C/C=C/C(C)=C/CO)C(C)(C)CCC1 [Retinol, retinol, reference compound]?
Answer: % of Control (1 μM test agent alone, 1 µM): 85.5% and 96.5% and 99.9% and 103.7% and 99.3% and 93.9%; activity at 1 µM [5]: 98.4%; sebum suppressive activity (alone, 1 or 10 μM): inactive
